Tests used:
[1] = tested on: cyclooxygenase (6-keto-PGF1α release); assay: Cyclooxygenase inhibition: 6-keto-PGF1α release from zymosan-stimulated mouse peritoneal macrophage cells; type: cell-based; conditions: Peritoneal macrophage cell; zymosan-stimulated mouse peritoneal macrophage cells, 10^-5 mole/l; read-out: In vitro % inhibition upon release of 6-keto-PGF1α
Text: 5. In vitro Determination of Cyclooxygenase Inhibition and 5-Lipoxygenase Inhibition
After a cell is activated, arachidonic acid contained in cell membranes is metabolized in two ways. Leucotrienes, inter alia leucotriene C4, are formed due to the action of the enzyme 5-lipoxyqenase (=5-LO), and prostanoids are formed due to the action of the enzyme cyclooxygenase (=CO). In in vitro systems these metabolites are secreted from the cell.
To evaluate the cyclooxygenase-inhibiting and 5-lipoxygenase-inhibiting properties of the test substances, their inhibitory activity on the biosynthesis of the arachidonic acid derivatives leucotriene C4 (=LTC4) and 6-keto-prostaglandin F1α (=6-keto-PGF1 α) was determined in vitro on mouse peritoneal macrophage cells. For this purpose the LTC4 and 6-keto-PGF1 α contents of a mouse peritoneal macrophage cell culture medium were determined by zymosan stimulation as described by Scott et al. (J. Exp. Med. 152 (1980), 324-335) and by Fradin et al., (Prostaglandins, 33 (1987), 579-589).
A cell suspension containing peritoneal cells from male mice 8-10 weeks old was obtained in a known manner. A solution marketed under the designation RPMI 1640 (Manufactured by Gibco) was used as the cell culture medium, to which heparin (10 international units/ml) and antibiotics were added according to the procedure of Bonney et al. (Biochem. J. 176 (1978) 422-433). The cell suspension was adjusted to a cell concentration of 10^6 cells per ml and distributed uniformly on titer dishes containing 24 1-ml titer cells (wells). These were kept for two hours in a humidified incubator filled with air enriched with 7% CO2. Cells not adhering to the titer well walls were then removed by washing. The remaining macrophage cells adhering to the walls were incubated for about 12 hours in a suspension medium to which 0.1% of bovine serum albumin (BSA=Bovine Serum Albumin) was added. The suspension medium was then replaced by a Hanks salt solution (=Hanks Balanced Salt Solution=HBSS) with 10 mmoles of Hepes (=hydroxyethylpiperazinoethanesulfonic acid) to which a 0.1% strength solution of the test substances in aqueous, 1% strength dimethylformamide or only the solvent had been added. After 15 minutes the arachidonic acid metabolism was stimulated by adding […] of zymosan (=glycoprotein mixture isolated from cell walls of beer yeast, Saccharomyces cerevisiae, Manufactured by Sigma Chemical Co., Munich) per titre cell. After 2 hours samples of the respective supernatant liquid in each cell were examined for their 6-keto-PGF1α and LTC4 contents by an enzyme immunoassay (=EIA). This EIA is carried out following the method of Pradelles et al. (Analytical Chem. 57 (1985), 1170-1173). The determination of LTC4 and the determination of 6-keto-PGF1α were each carried out on suitable dilutions of the samples (1:50 to 1:250 for the LTC4 determination and 1:250 to 1:1,250 for the 6-keto-PGF1α determination) in comparison with a comparative scale. To determine the inhibiting effect of a 10^-5 molar concentration of the compounds, the amounts of reference eicosanoid were determined, and the inhibiting effect was calculated therefrom in % inhibition compared to the measurements of the zymosan controls.

mice = assay: Determination of minimum toxic dose; type: in vivo; conditions: mouse, in vivo, 300 mg/kg, 1440 min
Procedure: 2. Determination of Minimum Toxic Dose
Maximum doses of 300 mg/kg of the test substance were administered orally to male mice weighing 20-25 g. The animals were observed carefully for 3 hours for toxicity symptoms. In addition, all symptoms and deaths were recorded over a period of 24 hours after administration. Associated symptoms were also observed and recorded. If death or severe toxic symptoms were observed, additional mice were administered increasingly lower doses. The lowest dose which produced death or severe toxic symptoms is given in the following Table B as the minimum toxic dose.

histamine-(H1)-receptor = target: T1, histamine-(H1)-receptor (Cavia porcellus, UniProt P31389); assay: Anti-histamine-(H1) effect, inhibition of histamine-induced contraction of isolated guinea pig ileum in vitro; type: cell-based, Dunkin Hartley guinea pigs; conditions: histamine 5 × 10^-6 mole/l, test substance 10^-6 mole/l
T1 construct: Segments of the ileum 1.5 cm long from Dunkin Hartley guinea pigs; from tissue; host or cells: isolated ileum segments of Dunkin Hartley guinea pigs
Procedure: 3. Investigation of Anti-Histamine-(H1) Effect Based on Histamine-(H1)-Receptor Antagonism In Vitro
To investigate the histamine-(H1)-receptor antagonism of the test substances, the inhibiting effect of the substances on histamine-induced contractions of the smooth muscle was determined in vitro on the isolated organ. Isolated strips of organ from the ileum are suitable for this purpose. In an organ bath of physiological saline solution the smooth muscle strips react to the addition of histamine by contracting. […] The extent of regression of the contraction is an indication of the anti-histamine-(H1) activity of the compounds. The investigation was carried out analogously to the method originally described by Magnus (Pfluegers Arch. 102, 123 (1904)). Procedure for determining the smooth muscle contraction inhibiting effect on isolated guinea pig ileum induced by a 5×10^-6 molar histamine concentration.
Segments of the ileum 1.5 cm long from Dunkin Hartley guinea pigs having a body weight of 300 500 g were used for the test. Each strip was placed in an organ bath of 10 ml of physiological saline solution according to Krebs-Henseleit and attached to a conventional apparatus for isotonic measurement of changes in length of the ileum strips (automated Celaster measuring apparatus), so that the tissue was under 1 g of tension. The bath was kept at a pH of 7.4 and gassed with a mixture of 5% CO2 and 95% 02. After an equilibration phase, an isotonic contraction of the tissue was induced by adding histamine in a final concentration of 5×10^-6 mole/liter and washing it out again after a contact time of 30 seconds. Only tissues samples from which three reproducible contractions were obtained at 10 minute intervals were used in the subsequent test. The test substances were then added in a final concentration of 10^-6 mole/liter, and after 30 seconds contact time histamine was again added up to a concentration of 5×10^-6 mole/liter. The resulting contractions were measured over 30 seconds. The tissue was then washed several times over a period of 10 minutes. Histamine was then added again to stimulate a contraction. The resulting contractions were again measured over 30 seconds. The difference between the amplitude of the contraction obtained by histamine addition alone and the amplitude of the contraction obtained in the presence of the test substance was determined and expressed in terms of % inhibition.
The inhibiting effects on the contractions induced by histamine 30 seconds after administration of the test substance and on the contractions induced by the addition of histamine 10 minutes later are listed in the table.

T1 sequence (P31389 whole entry): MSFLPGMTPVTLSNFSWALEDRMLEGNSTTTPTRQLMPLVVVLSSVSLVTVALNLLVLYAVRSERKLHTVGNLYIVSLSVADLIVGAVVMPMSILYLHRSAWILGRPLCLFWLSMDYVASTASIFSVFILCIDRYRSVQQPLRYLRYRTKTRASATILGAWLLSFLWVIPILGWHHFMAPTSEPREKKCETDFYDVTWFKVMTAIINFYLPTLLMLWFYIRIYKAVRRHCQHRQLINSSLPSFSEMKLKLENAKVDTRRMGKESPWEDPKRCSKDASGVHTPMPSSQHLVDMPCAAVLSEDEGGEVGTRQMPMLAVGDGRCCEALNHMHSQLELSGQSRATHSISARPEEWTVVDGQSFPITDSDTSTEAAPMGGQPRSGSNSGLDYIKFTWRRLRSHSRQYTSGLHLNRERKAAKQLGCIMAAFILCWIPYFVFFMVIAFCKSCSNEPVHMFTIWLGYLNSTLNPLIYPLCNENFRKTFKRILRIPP

Question: O=C1Nc2ccccc2SC1CCCN1CCC(Nc2nc3ccccc3n2Cc2ccc(F)cc2)CC1 (stereo not shown) [Example 8] was tested. Which inhibition at 10 µM [1] did it give?
Answer: 40%

Question: What about the Minimum toxic dose (mice) of the same compound?
Answer: 300 mg/kg

Question: What about the “in vitro (H1)-receptor antagonism, % inhibition of histamine-induced ileum contractions after 30 seconds” value (histamine-(H1)-receptor; after 30 seconds) of the same compound?
Answer: 5%

Question: And the “in vitro (H1)-receptor antagonism, % inhibition of histamine-induced ileum contractions after 10 minutes” value (histamine-(H1)-receptor; after 10 minutes)?
Answer: 44%

From patent US5283243A, “Piperidinoalkylbenzoxazine and piperidinoalkylbenzothiazine compounds, and medicaments containing them” (Kali-Chemie Pharma GmbH, priority 1990, dated 1994)
